The record followed here is patent US9815831B2, “3,5-disubstituted-3H-imidazo[4,5-B]pyridine and 3,5-disubstituted-3H-[1,2,3]triazolo[4,5-B] pyridine compounds as modulators of c-Met protein kinases” (Rhizen Pharmaceuticals SA, priority 2012, dated 2017).

Where two headings read alike, the source gives them in different places.

Data set [1] addresses T1, human recombinant Met kinase (Homo sapiens, UniProt P08581).
T1 construct: purchased Cell Signalling Technology, Beverly, Mass
Description: Colorimetric determination of c-Met kinase activity (HTScan Met Kinase Assay Kit). The data set is classed as biochemical. The note with it: 100 nM (cells without *), read-out: c-Met Enzyme % inhibition @ 100 nM. The gist of the method: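 Human recombinant Met kinase was preincubated with compound for 5 min at room temperature, then reacted with ATP and biotinylated peptide for 30 min; EDTA stop. Phosphopeptide captured on streptavidin and detected with phospho-tyrosine mAb and europium anti-mouse IgG by time-resolved fluorescence (340/615 nm). Reported as % inhibition or IC50.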

Data set [2] concerns MKN-45. As to the kind of experiment: Inhibition of MKN-45 proliferation (MTT). The data set is classed as cell-based, human. The note with it: Homo sapiens, MKN-45 proliferation; for inhibition at 0.1 µM: 100 nM, read-out: MKN45 % inhibition @ 100 nM; for GI50: read-out: MKN45 GI50. The gist of the method: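 High-Met human gastric adenocarcinoma MKN-45 cells plated on day 1 and exposed to compound from day 2. Viability measured by MTT dye reduction on day 5; output given as % inhibition at 100 nM and GI50.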

Data set [3] has as its target c-Met kinase (Homo sapiens, UniProt P08581). Description: Inhibition of c-Met kinase phosphorylation in MKN-45 cells (cell based ELISA). Also noted: endogenous in cells; host or cells: MKN-45. Conditions: Table 4D, 1 h incubation. As for the experimental part:
MKN45 cells are a prototype of “c-Met addicted” cells having constitutively activated c-Met kinase similar to that observed in sub-sects of gastric or hepatocellular cancer patients with dysregulated c-Met kinase activity. Inhibition of Met phosphorylation was determined using a cell based ELISA assay according to the following schedule: • Day 1: MKN-45 cells were plated in 96-well plates in complete growth medium. • Day 2: Inhibitors at the desired concentration were added to the plates and incubated for 1 h and lysed subsequently. Lysates were transferred to NUNC Maxisorp plates coated with anti-cMet receptor antibody. Phopho-tyrosine mAb and HRP-lined anti-mouse IgG were used as primary and secondary antibodies respectively. Optical density was measured on a microplate reader (BMG Labtech., Germany) at […]. Inhibition of c-Met phosphorylation in this cell line indicates a therapeutic potential for test compounds in patients diagnosed with cancers caused by aberrant c-Met kinase signalling. Results: The results are provided above in Table 4D as IC50 values.
Background: In an ELISA, binding on a coated surface is turned into a signal by an enzyme label.

The target of data set [4] is T1, human recombinant Met kinase. Description: Colorimetric determination of c-Met kinase activity (HTScan Met Kinase Assay Kit). The data set is classed as biochemical. The note with it: read-out: c-Met Enzyme IC50.

T1 sequence (P08581 25-1390): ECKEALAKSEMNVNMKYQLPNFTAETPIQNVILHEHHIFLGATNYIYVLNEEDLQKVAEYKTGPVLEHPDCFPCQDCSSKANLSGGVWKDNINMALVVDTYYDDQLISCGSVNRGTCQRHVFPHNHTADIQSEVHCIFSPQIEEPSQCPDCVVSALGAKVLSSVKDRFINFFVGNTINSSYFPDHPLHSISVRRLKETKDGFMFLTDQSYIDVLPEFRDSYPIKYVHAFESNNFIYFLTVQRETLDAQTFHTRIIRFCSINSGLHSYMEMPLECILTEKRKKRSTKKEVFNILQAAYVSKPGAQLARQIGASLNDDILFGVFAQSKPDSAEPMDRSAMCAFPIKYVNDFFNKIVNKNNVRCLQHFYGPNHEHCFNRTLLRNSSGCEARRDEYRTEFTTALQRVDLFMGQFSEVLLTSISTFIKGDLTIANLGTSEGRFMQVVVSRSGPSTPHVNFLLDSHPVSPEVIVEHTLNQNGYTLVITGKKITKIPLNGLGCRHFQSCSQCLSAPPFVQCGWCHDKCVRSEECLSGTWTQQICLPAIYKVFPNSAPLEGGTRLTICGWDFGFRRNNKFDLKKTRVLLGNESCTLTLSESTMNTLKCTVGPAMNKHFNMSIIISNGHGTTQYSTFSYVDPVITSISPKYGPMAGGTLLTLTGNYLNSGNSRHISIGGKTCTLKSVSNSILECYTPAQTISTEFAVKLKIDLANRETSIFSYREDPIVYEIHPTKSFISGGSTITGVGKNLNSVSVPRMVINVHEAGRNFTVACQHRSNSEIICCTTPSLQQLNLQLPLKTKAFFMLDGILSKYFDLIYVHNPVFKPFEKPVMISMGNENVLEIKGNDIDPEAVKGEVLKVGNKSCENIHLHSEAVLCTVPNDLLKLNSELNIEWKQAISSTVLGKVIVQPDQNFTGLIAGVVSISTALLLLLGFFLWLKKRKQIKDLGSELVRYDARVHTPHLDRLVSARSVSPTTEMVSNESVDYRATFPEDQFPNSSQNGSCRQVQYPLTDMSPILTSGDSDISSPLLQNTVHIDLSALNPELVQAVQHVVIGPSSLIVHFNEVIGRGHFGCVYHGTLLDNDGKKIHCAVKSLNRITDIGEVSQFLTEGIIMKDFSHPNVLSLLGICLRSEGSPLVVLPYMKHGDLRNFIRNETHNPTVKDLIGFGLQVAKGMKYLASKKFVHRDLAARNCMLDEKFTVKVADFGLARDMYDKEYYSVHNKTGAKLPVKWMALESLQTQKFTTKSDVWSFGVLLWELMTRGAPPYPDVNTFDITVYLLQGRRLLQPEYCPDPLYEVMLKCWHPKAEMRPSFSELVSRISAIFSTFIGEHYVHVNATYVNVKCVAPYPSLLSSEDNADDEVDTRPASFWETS
Sequence of c-Met kinase (P08581 25-1390): as above

As usually defined, the inhibition is the drop in the measured response relative to a control, in per cent. By GI50 is commonly meant the concentration giving 50% growth inhibition. The term IC50 denotes the midpoint of a concentration-inhibition curve. With `C[C@H](O)CONC(=O)c1ccc(-c2ccc3nnn(Cc4ccc5ncccc5c4)c3n2)cc1Cl` [Example 31, (S)-2-chloro-N-(2-hydroxypropoxy)-4-(3-(quinolin-6-ylmethyl)-3H-[1,2,3]triazolo[4,5-b]pyridin-5-yl) benzamide], in data set [1] (Table 4A), the inhibition at 0.1 µM was in the range of 50 to 75%. Also, in data set [2] (MKN-45, Table 4A), the inhibition at 0.1 µM lay in the range of 50 to 75% and the GI50 was in the range of 0.025 to 0.05 µM. For the same compound, the IC50 in data set [3] was not above 0.01 µM.
The melting point is the temperature of the solid-liquid transition. `O=C(NOCCO)c1c(F)cc(-c2ccc3nnn(Cc4ccc5ncsc5c4)c3n2)cc1F` [Example 19, 4-(3-(benzo[d]thiazol-6-ylmethyl)-3H-[1,2,3]triazolo[4,5-b]pyridin-5-yl)-2,6-difluoro-N-(2-hydroxyethoxy)benzamide] gave a melting point of 202 to 205 °C. The inhibition at 0.1 µM in data set [1] (Table 4A) is 75 to 100%. Besides, in data set [2] (MKN-45, Table 4A), the inhibition at 0.1 µM lay within 25 to 50% and the GI50 fell in the range of 0.05 to 0.1 µM. In data set [4] (Table 4A), the IC50 fell in the range of 0.025 to 0.05 µM.
On to `C[C@@H](O)CONC(=O)c1ccc(-c2ccc3nnn(Cc4ccc5ncccc5c4)c3n2)cc1Cl` [Example 32, (R)-2-chloro-N-(2-hydroxypropoxy)-4-(3-(quinolin-6-ylmethyl)-3H-[1,2,3]triazolo[4,5-b]pyridin-5-yl) benzamide], for which the inhibition at 0.1 µM in data set [1] (Table 4A) lay within 75 to 100%; in data set [2] (MKN-45, Table 4A), 75 to 100%. Moreover, the GI50 in data set [2] (MKN-45, Table 4A) was 0.025 to 0.05 µM. In addition, the IC50 in data set [4] (Table 4A) is 0.025 to 0.05 µM; in data set [3], not above 0.01 µM.
`O=C(NOCCO)c1ccc(-c2ccc3nnn(Cc4ccc5ncsc5c4)c3n2)cc1Cl` [Example 18, 4-(3-(benzo[d]thiazol-6-ylmethyl)-3H-[1,2,3]triazolo[4,5-b]pyridin-5-yl)-2-chloro-N-(2-hydroxyethoxy)benzamide] returned a melting point of 194 to 196 °C. Further, the inhibition at 0.1 µM in data set [1] (Table 4A) was in the range of 50 to 75%. Besides, in data set [2] (MKN-45, Table 4A), the inhibition at 0.1 µM lay in the range of 25 to 50% and the concentration for 50% growth inhibition (GI50) lay in the range of 0.05 to 0.1 µM. Besides, in data set [4] (Table 4A), the half-maximal inhibitory concentration (IC50) lay in the range of 0.025 to 0.05 µM.
`Cc1ccc2cc(Cn3nnc4ccc(-c5cc(F)c(C(=O)NOCCO)c(F)c5)nc43)ccc2n1` [Example 21, 2,6-difluoro-N-(2-hydroxyethoxy)-4-(3-((2-methylquinolin-6-yl)methyl)-3H-[1,2,3]triazolo[4,5-b]pyridin-5-yl) benzamide]: the melting point was in the range of 208 to 210 °C. Further, in data set [1] (Table 4A), the inhibition at 0.1 µM lay in the range of 75 to 100%. The inhibition at 0.1 µM in data set [2] (MKN-45, Table 4A) is less than 25%. The half-maximal inhibitory concentration (IC50) in data set [4] (Table 4A) lay within 0.025 to 0.05 µM.
Compound `C[C@H](N)C(=O)OCCONC(=O)c1ccc(-c2ccc3nnn(Cc4ccc5ncccc5c4)c3n2)cc1Cl` [Example 13, (S)-2-(2-chloro-4-(3-(quinolin-6-ylmethyl)-3H-[1,2,3]triazolo[4,5-b]pyridin-5-yl)benzamidooxy)ethyl 2-aminopropanoate] showed a melting point of 175 to 177 °C. In data set [1] (Table 4A), the inhibition at 0.1 µM lay within 75 to 100%.
In the case of `O=C(NOCCO)c1ccc(-c2ccc3nnn(Cc4ccc5ncccc5c4)c3n2)cc1F` [Example 10, 2-fluoro-N-(2-hydroxyethoxy)-4-(3-(quinolin-6-ylmethyl)-3H-[1,2,3]triazolo[4,5-b]pyridin-5-yl)benzamide], the melting point was 200 to 203 °C. Besides, the inhibition at 0.1 µM in data set [1] (Table 4A) lay in the range of 75 to 100%. In data set [2] (MKN-45, Table 4A), the inhibition at 0.1 µM lay within 75 to 100% and the GI50 was 0.025 to 0.05 µM. Moreover, the IC50 in data set [4] (Table 4A) was 0.025 to 0.05 µM.
For `NC(=O)c1ccc(-c2ccc3ncn(Cc4cc5cccnc5cc4F)c3n2)cc1C(F)(F)F` [Example 1026, 4-[3-(7-Fluoro-quinolin-6-ylmethyl)-3H-imidazo[4,5-b]pyridin-5-yl]-2-trifluoromethyl-benzamide], the melting point was in the range of 239 to 241 °C. Moreover, the inhibition at 0.1 µM in data set [1] (Table 4C) was in the range of 25 to 50%.
`O=C(NOCCO)c1ccc(-c2ccc3nnn(Cc4ccc5ncsc5c4)c3n2)cc1F` [Example 20, 4-(3-(benzo[d]thiazol-6-ylmethyl)-3H-[1,2,3]triazolo[4,5-b]pyridin-5-yl)-2-fluoro-N-(2-hydroxyethoxy)benzamide] displayed a melting point of 164 to 166 °C. The inhibition at 0.1 µM in data set [1] (Table 4A) fell in the range of 75 to 100%. Moreover, in data set [2] (MKN-45, Table 4A), the inhibition at 0.1 µM lay in the range of 75 to 100% and the GI50 was 0.05 to 0.1 µM. Further, the IC50 in data set [4] (Table 4A) lay within 0.025 to 0.05 µM.
The compound `CC(C)(CO)ONC(=O)c1ccc(-c2ccc3nnn(Cc4ccc5ncccc5c4)c3n2)cc1Cl` [Example 40, 2-chloro-N-(1-hydroxy-2-methylpropan-2-yloxy)-4-(3-(quinolin-6-ylmethyl)-3H-[1,2,3]triazolo[4,5-b]pyridin-5-yl)benzamide] registered a melting point of 148 to 150 °C. Moreover, the inhibition at 0.1 µM in data set [1] (Table 4A) was 75 to 100%.
`Cc1ccc2cc(Cn3nnc4ccc(-c5ccc(C(=O)NOCCO)c(Cl)c5)nc43)ccc2n1` [Example 17, 2-chloro-N-(2-hydroxyethoxy)-4-(3-((2-methylquinolin-6-yl)methyl)-3H-[1,2,3]triazolo[4,5-b]pyridin-5-yl) benzamide]: the melting point is 219 to 222 °C. In addition, the inhibition at 0.1 µM in data set [1] (Table 4A) was less than 25%.
Consider `CNC(=O)c1ccc(-c2ccc3ncn(Cc4ccc5ncccc5c4)c3n2)cn1` [Example 1031, 5-(3-Quinolin-6-ylmethyl-3H-imidazo[4,5-b]pyridin-5-yl)-pyridine-2-carboxylic acid methylamide], for which the melting point was in the range of 219 to 221 °C. Further, in data set [1] (Table 4C), the inhibition at 0.1 µM is less than 25%.
`C[C@H](O)CNC(=O)c1ccc(-c2ccc3ncn(Cc4ccc5ncccc5c4)c3n2)cc1F` [Example 110, (S)-2-fluoro-N-(2-hydroxypropyl)-4-(3-(quinolin-6-ylmethyl)-3H-imidazo[4,5-b]pyridin-5-yl)benzamide] registered a melting point of 166 to 169 °C. Also, the inhibition at 0.1 µM in data set [1] (Table 4B) lay within 75 to 100%.
The compound `CC(C)C(=O)OCCONC(=O)c1ccc(-c2ccc3nnn(Cc4ccc5ncccc5c4)c3n2)cc1Cl` [Example 15, 2-(2-chloro-4-(3-(quinolin-6-ylmethyl)-3H-[1,2,3]triazolo[4,5-b]pyridin-5-yl)benzamidooxy)ethyl isobutyrate] displayed a melting point of 115 to 118 °C. Moreover, the inhibition at 0.1 µM in data set [1] (Table 4A) lay in the range of 75 to 100%.
Regarding `NC(=O)c1ccc(-c2ccc3ncn(Cc4ccc5ncccc5c4)c3n2)cc1C(F)(F)F` [Example 1024, 4-(3-Quinolin-6-ylmethyl-3H-imidazo[4,5-b]pyridin-5-yl)-2-trifluoromethyl-benzamide], the melting point was 243 to 245 °C. The inhibition at 0.1 µM in data set [1] (Table 4C) was in the range of 75 to 100%. Besides, the GI50 in data set [2] (MKN-45, Table 4C) fell in the range of 0.1 to 0.25 µM. Moreover, the half-inhibitory concentration (IC50) in data set [4] (Table 4C) was less than 0.025 µM.
In turn, `Cc1cc(-c2ccc3ncn(Cc4c(F)cc5ncccc5c4F)c3n2)ccc1C(N)=O` [Example 1027, 4-[3-(5,7-Difluoro-quinolin-6-ylmethyl)-3H-imidazo[4,5-b]pyridin-5-yl]-2-methyl-benzamide] showed a melting point of 158 to 160 °C. In addition, in data set [1] (Table 4C), the inhibition at 0.1 µM is 75 to 100%. In data set [2] (MKN-45, Table 4C), the inhibition at 0.1 µM lay within 75 to 100%.
Turning to `O=C(CNC(=O)c1ccccc1)OCCONC(=O)c1ccc(-c2ccc3nnn(Cc4ccc5ncccc5c4)c3n2)cc1Cl` [Example 16, 2-(2-chloro-4-(3-(quinolin-6-ylmethyl)-3H-[1,2,3]triazolo[4,5-b]pyridin-5-yl)benzamidooxy)ethyl 2-benzamidoacetate], the melting point was 110 to 112 °C. For the same compound, in data set [1] (Table 4A), the inhibition at 0.1 µM is 75 to 100%.
